Patent US6962695B1, “Modification of interferon alpha production” (Bionative AB, priority 1998, dated 2005)

Assays:
[1] = test system: Sendai virus induced human leukocytes; test: α-interferon production in Sendai virus induced human leukocytes, ELISA of supernatant; assay type: cell-based; conditions: for effect on production of α-interferon (in words): virus induced primary leukocytes
Protocol: The human leukocytes used according to the invention are prepared from buffy coats by an initial centrifugation to fractionate the components, followed by sequential removal of the plasma layer and of the leukocyte fraction by suction. Residual red blood cells contaminating the leukocyte fraction are lysed twice with 2-4 volumes of cold 0.83% ammonium chloride and each lysis step is followed by centrifugation to collect the cells. The final leukocyte fraction is resuspended in a basal medium, e.g. EMEM (Eagle's minimum essential medium) supplemented with polyethylene glycol-(PEG)-precipitated human plasma. PEG-precipitated plasma is prepared by adding PEG 6000 to a final concentration of 6% (w/w) to human plasma. After precipitation for 3-5 days in a cold room the supernatant is removed and stored frozen until used. The temperature of the incubation medium is set to 36-37° C. and continuous stirring is used. Human PEG-precipitated plasma is added to a concentration of 1-5% (v/v), preferably 4% (v/v). A low amount of α-interferon (normally 100 IU/ml) is added to the incubation medium as a priming step, but other concentrations, up to several thousands of units per ml can be used. Human leukocytes are then added to a concentration of about 3-15 million cells per mL, preferably 7-11 million cells per mL. The similar size of the enhancing effect observed using the different cell concentrations makes it probable that the effect can be seen also at cell concentrations outside this range. The priming step is normally allowed to proceed for 1-5 hours, preferably 1.5-2 hours. […] A decrease of the incubation temperature to 29° C. -32° C. is performed (Morser, J. And Shuttleworth, J. (1981) J. Gen. Virology 56, 163-174) after another 1 to 4 hours, preferable after 1 to 2 hours. The concentration range where the additives are effective in increasing the interferon production varies between the different compounds but for the least toxic solvents a positive effect can be seen in the range of 1 mM-0.3 M, preferably in the range of 3 mM-50 mM and most preferably within 5 mM-20 mM. For the more toxic solvents the suitable concentration lies within the more limited ranges. […] After these additions, the incubation is allowed to proceed overnight with continuous stirring. A centrifugation step is performed to remove the cells and the supernatants are analysed by an ELISA to quantify α-interferon. Human leukocytes prepared from buffy coats and used in concentrations between 8 and 11 million cells per mL are incubated in a basal media (either EMEM or a modified EMEM) supplemented with 1.5 g/L of tricine and 4% (v/v) PEG precipitated plasma. […] The cells are removed by a centrifugation step and the supernatants are analysed by an ELISA to quantify α-interferon. […]

[2] = test system: non induced human leukocytes; test: α-interferon production in non induced human leukocytes, ELISA of supernatant; assay type: cell-based; conditions: absence of a viral inducer
Protocol: Human leukocytes prepared from buffy coats and used in concentrations between 8 and 11 million cells per mL are incubated in a basal media (either EMEM or a modified EMEM) supplemented with 1.5 g/L of tricine and 4% (v/v) PEG precipitated plasma. The experiments are performed in a volume of 40 mL medium in 100 mL glass bottles under continuous stirring. The cells are primed with 100 IU/mL α-interferon for 1.5 hours at 37° C. before addition of 30 mL/L Sendai virus. After 1.5 hours the incubation temperature is decreased to 30° C. and the organic solvents are added to the incubation medium. The solvent used are acetone, DMSO (final concentration: 5 mL/L), 2-butanone, NN-dimethylacetamide, NMP, tetramethylene sulfoxide (2.5 mL/L), TMU (1.5 mL/L), 2-pyrrolidinone (1.25 mL/L), 4-metyl-2-pentanone, 1,3-dimetyl-2-imidazolidinone and N-ethyl-2-pyrrolidinone (0.6 mL/L). The incubation is then allowed to proceed overnight. The cells are removed by a centrifugation step and the supernatants are analysed by an ELISA to quantify α-interferon.
Example 1 is repeated with the same incubation conditions but with addition of 2-ABMP in combination with DMSO. The enhancing agents are added both to Sendai virus induced leukocytes and to non induced leukocytes and the effect on the α-interferon production is compared. The 2-ABMP is added at a concentration of 50 μg/ml and the amount of DMSO added is 5 mL/L.

Compound: Cc1nc(N)nc(O)c1Br [2-ABMP, 2-amino-5-bromo-6-methyl-4-pyrimidinol]
- effect on production of α-interferon (in words) [1]: act as an enhancing agent
- induction of α-interferon (in words) [2]: did not induce α-interferon

Compound: C[S+](C)[O-] [dimethylsulfoxide]
- effect on production of α-interferon (in words) [1]: enhanced

Compound: CCCC(=O)[O-].[Na+] [sodium butyrate]
- effect on yield of α-interferon (in words) ([1]; pre-treatment of primary leukocytes): decrease

Compound: Cn1c(=O)c2[nH]cnc2n(C)c1=O [theophylline]
- effect on production of α-interferon (in words) [1]: enhanced
